Laboratory results as given in US20250145594A1, “MODULATORS OF THE INTEGRATED STRESS PATHWAY” (Calico Life Sciences LLC, priority 2020, published 2025).

Test system: ATF4 luciferase reporter in HEK293T cells
Experiment: ATF4-Luc assay (in vitro model of VWMD)
Format: cell-based, human
Details: HEK293T cells carrying the ATF4 luciferase reporter, 1 μg/mL tunicamycin, One Glo luminescence
Method in brief: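 Tunicamycin (1 μg/mL) stress with co-added compound for 7 hours in HEK293T cells stably carrying an ATF4 5′-UTR–luciferase reporter. EC50 values come from the luminescent signal (One Glo).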

`O=C(NC12CC(n3cc(-c4ccc(OC(F)F)nc4)cn3)(C1)C2)[C@@H]1C[C@@H](O)c2cc(Cl)ccc2O1` [Compound 332, (2S,4R)-6-chloro-N-(3-{4-[6-(difluoromethoxy)pyridin-3-yl]-1H-pyrazol-1-yl}bicyclo[1.1.1]pentan-1-yl)-4-hydroxy-3,4-dihydro-2H-1-benzopyran-2-carboxamide] showed an EC50 (Homo sapiens, HEK-293T, 7 h) of less than 10 nM.
For `O=C(NC12CC(c3ccnc(OCCCOC(F)(F)F)c3)(C1)C2)[C@H]1C[C@@H](O)c2cc(Cl)c(F)cc2O1` [Compound 427, (2R,4R)-6-chloro-7-fluoro-4-hydroxy-N-(3-{2-[3-(trifluoromethoxy)propoxy]pyridin-4-yl}bicyclo[1.1.1]pentan-1-yl)-3,4-dihydro-2H-1-benzopyran-2-carboxamide], the EC50 (Homo sapiens, HEK-293T, 7 h) was less than 10 nM.
`O=C(NC12CC(n3cc(OCCCC(F)(F)F)cn3)(C1)C2)[C@H]1C[C@@H](O)c2cc(Cl)ccc2O1` [Compound 517, (2R,4R)-6-chloro-4-hydroxy-N-{3-[4-(4,4,4-trifluorobutoxy)-1H-pyrazol-1-yl]bicyclo[1.1.1]pentan-1-yl}-3,4-dihydro-2H-1-benzopyran-2-carboxamide] gave an EC50 (Homo sapiens, HEK-293T, 7 h) of less than 10 nM.
`COc1ccc2nn(C34CC(NC(=O)[C@H]5C[C@@H](O)c6cc(C(F)(F)F)c(F)cc6O5)(C3)C4)cc2n1` (racemic) [Compound 655, rac-(2R,4R)-7-fluoro-4-hydroxy-N-[3-(5-methoxy-2H-pyrazolo[4,3-b]pyridin-2-yl)bicyclo[1.1.1]pentan-1-yl]-6-(trifluoromethyl)-3,4-dihydro-2H-1-benzopyran-2-carboxamide] gave an EC50 (Homo sapiens, HEK-293T, 7 h) of less than 10 nM.
Work on `O=C(NC12CC(n3cc(N4CC[C@H](OC(F)(F)F)C4)cn3)(C1)C2)[C@H]1C[C@@H](O)c2cc(Cl)ccc2O1` [Compound 355, (2R,4R)-6-chloro-4-hydroxy-N-(3-{4-[(3S)-3-(trifluoromethoxy)pyrrolidin-1-yl]-1H-pyrazol-1-yl}bicyclo[1.1.1]pentan-1-yl)-3,4-dihydro-2H-1-benzopyran-2-carboxamide] yielded an EC50 (Homo sapiens, HEK-293T, 7 h) of 10 to 50 nM.
In the case of `COc1ccc2cn(C34CC(NC(=O)[C@H]5C[C@@H](O)c6cc(Cl)c(F)cc6O5)(C3)C4)nc2c1` [Compound 504, (2R,4R)-6-chloro-7-fluoro-4-hydroxy-N-[3-(6-methoxy-2H-indazol-2-yl)bicyclo[1.1.1]pentan-1-yl]-3,4-dihydro-2H-1-benzopyran-2-carboxamide], the EC50 (Homo sapiens, HEK-293T, 7 h) is reported as less than 10 nM.
In the case of `O=C(NC12CC(n3cc(OCCCC(F)(F)F)cn3)(C1)C2)[C@H]1CC(O)c2cc(Cl)c(F)cc2O1` (stereo in doubt) [Compound 464, (2R,4R)-6-chloro-7-fluoro-4-hydroxy-N-{3-[4-(4,4,4-trifluorobutoxy)-1H-pyrazol-1-yl]bicyclo[1.1.1]pentan-1-yl}-3,4-dihydro-2H-1-benzopyran-2-carboxamide], the EC50 (Homo sapiens, HEK-293T, 7 h) is reported as less than 10 nM.
`O=C(NC12CCC(n3cc(OCCCOC(F)(F)F)cn3)(C1)C2)[C@H]1C[C@@H](O)c2cc(Cl)c(F)cc2O1` [Compound 629, (2R,4R)-6-chloro-7-fluoro-4-hydroxy-N-(4-{4-[3-(trifluoromethoxy)propoxy]-1H-pyrazol-1-yl}bicyclo[2.1.1]hexan-1-yl)-3,4-dihydro-2H-1-benzopyran-2-carboxamide] was tested, and the EC50 (Homo sapiens, HEK-293T, 7 h) was 10 to 50 nM.
`O=C(NC12CC(n3cc(C(=O)N4CC(COC(F)F)C4)cn3)(C1)C2)[C@H]1C[C@@H](O)c2cc(Cl)ccc2O1` [Compound 348, (2R,4R)-6-chloro-N-[3-(4-{3-[(difluoromethoxy)methyl]azetidine-1-carbonyl}-1H-pyrazol-1-yl)bicyclo[1.1.1]pentan-1-yl]-4-hydroxy-3,4-dihydro-2H-1-benzopyran-2-carboxamide] was tested, and the EC50 (Homo sapiens, HEK-293T, 7 h) was 50 to 250 nM.
For `O=C(NC12CC(n3cnc([C@H]4C[C@@H](OC(F)(F)F)C4)c3)(C1)C2)[C@H]1C[C@@H](O)c2cc(Cl)c(F)cc2O1` [Compound 472, (2R,4R)-6-chloro-7-fluoro-4-hydroxy-N-(3-{4-[(1s,3S)-3-(trifluoromethoxy)cyclobutyl]-1H-imidazol-1-yl}bicyclo[1.1.1]pentan-1-yl)-3,4-dihydro-2H-1-benzopyran-2-carboxamide], the EC50 (Homo sapiens, HEK-293T, 7 h) was less than 10 nM.
In the case of `O=C(NC12CCC(n3cc(-c4ccc(C(F)(F)F)cn4)cn3)(C1)C2)[C@H]1C[C@@H](O)c2cc(Cl)ccc2O1` [Compound 626, (2R,4R)-6-chloro-4-hydroxy-N-(4-{4-[5-(trifluoromethyl)pyridin-2-yl]-1H-pyrazol-1-yl}bicyclo[2.1.1]hexan-1-yl)-3,4-dihydro-2H-1-benzopyran-2-carboxamide], the EC50 (Homo sapiens, HEK-293T, 7 h) is reported as 10 to 50 nM.
In the case of `O=C(COc1ccc(Cl)c(F)c1)NC12CC(n3cc(C(=O)N[C@H]4C[C@@H](OC(F)(F)F)C4)cn3)(C1)C2` [Compound 362, 1-{3-[2-(4-chloro-3-fluorophenoxy)acetamido]bicyclo[1.1.1]pentan-1-yl}-N-[cis-3-(trifluoromethoxy)cyclobutyl]-1H-pyrazole-4-carboxamide], the EC50 (Homo sapiens, HEK-293T, 7 h) is reported as 50 to 250 nM.
`O=C(NC12CC(n3cc(OCCCOC(F)(F)F)cn3)(C1)C2)[C@H]1C[C@@H](O)c2cc(C(F)(F)F)ccc2O1` [Compound 435, (2R,4R)-4-hydroxy-N-(3-{4-[3-(trifluoromethoxy)propoxy]-1H-pyrazol-1-yl}bicyclo[1.1.1]pentan-1-yl)-6-(trifluoromethyl)-3,4-dihydro-2H-1-benzopyran-2-carboxamide] gave an EC50 (Homo sapiens, HEK-293T, 7 h) of less than 10 nM.
With `O=C(COc1ccc(Cl)c(F)c1)NC12CC(n3cc(OCCCOC(F)(F)F)cn3)(C1)C2` [Compound 454, 2-(4-chloro-3-fluorophenoxy)-N-(3-{4-[3-(trifluoromethoxy)propoxy]-1H-pyrazol-1-yl}bicyclo[1.1.1]pentan-1-yl)acetamide] the EC50 (Homo sapiens, HEK-293T, 7 h) was less than 10 nM.
In the case of `O=C(CO[C@H]1C[C@@H](OC(F)(F)F)C1)NC12CCC(NC(=O)[C@H]3C[C@@H](O)c4cc(Cl)c(F)cc4O3)(CC1)C[C@@H]2O` [Compound 488, (2R,4R)-6-chloro-7-fluoro-4-hydroxy-N-[(3S)-3-hydroxy-4-(2-{[(1s,3R)-3-(trifluoromethoxy)cyclobutyl]oxy}acetamido)bicyclo[2.2.2]octan-1-yl]-3,4-dihydro-2H-1-benzopyran-2-carboxamide], the EC50 (Homo sapiens, HEK-293T, 7 h) is reported as less than 10 nM.
With `O=C(NC12CC(n3cc(OCCOC(F)(F)F)cn3)(C1)C2)[C@@H]1CNc2cc(Cl)ccc2O1` [Compound 519, (2S)-6-chloro-N-(3-{4-[2-(trifluoromethoxy)ethoxy]-1H-pyrazol-1-yl}bicyclo[1.1.1]pentan-1-yl)-3,4-dihydro-2H-1,4-benzoxazine-2-carboxamide] the EC50 (Homo sapiens, HEK-293T, 7 h) was 10 to 50 nM.
For `O=C(N[C@H]1CC[C@H](n2cc(OCCOC(F)(F)F)cn2)CC1)[C@H]1C[C@@H](O)c2cc(F)ccc2O1` [Compound 523, (2R,4R)-6-fluoro-4-hydroxy-N-[(1r,4R)-4-{4-[2-(trifluoromethoxy)ethoxy]-1H-pyrazol-1-yl}cyclohexyl]-3,4-dihydro-2H-1-benzopyran-2-carboxamide], the EC50 (Homo sapiens, HEK-293T, 7 h) was less than 10 nM.
With `O=C(NC12CC(n3cc(N4CC[C@H](COC(F)(F)F)C4)cn3)(C1)C2)[C@H]1C[C@@H](O)c2cc(Cl)ccc2O1` [Compound 373, (2R,4R)-6-chloro-4-hydroxy-N-[3-(4-{(3S)-3-[(trifluoromethoxy)methyl]pyrrolidin-1-yl}-1H-pyrazol-1-yl)bicyclo[1.1.1]pentan-1-yl]-3,4-dihydro-2H-1-benzopyran-2-carboxamide] the EC50 (Homo sapiens, HEK-293T, 7 h) was 50 to 250 nM.
`O=C(COc1ccc(Cl)c(F)c1)NC12CC(n3cc(OCCCOC(F)(F)F)cn3)(C1)C2` [Compound 607, 2-(4-chloro-3-fluorophenoxy)-N-(3-{4-[3-(trifluoromethoxy)propoxy]-1H-pyrazol-1-yl}bicyclo[1.1.1]pentan-1-yl)acetamide] was tested, and the EC50 (7 hours) was less than 10 nM.
For `COc1ncc(-c2cnn(C34CC(NC(=O)[C@@H]5C[C@H](O)c6cc(Cl)ccc6O5)(C3)C4)c2)cn1` [Compound 319, (2S,4S)-6-chloro-4-hydroxy-N-{3-[4-(2-methoxypyrimidin-5-yl)-1H-pyrazol-1-yl]bicyclo[1.1.1]pentan-1-yl}-3,4-dihydro-2H-1-benzopyran-2-carboxamide], the EC50 (Homo sapiens, HEK-293T, 7 h) was 250 to 500 nM.
In the case of `O=C(NC12CC(n3cc(CCCCOC(F)(F)F)nn3)(C1)C2)[C@H]1C[C@@H](O)c2cc(Cl)c(F)cc2O1` [Compound 466, (2R,4R)-6-chloro-7-fluoro-4-hydroxy-N-(3-{4-[4-(trifluoromethoxy)butyl]-1H-1,2,3-triazol-1-yl}bicyclo[1.1.1]pentan-1-yl)-3,4-dihydro-2H-1-benzopyran-2-carboxamide], the EC50 (Homo sapiens, HEK-293T, 7 h) is reported as less than 10 nM.
With `O=C(COc1ccc(Cl)c(F)c1)NC12CC(c3ccc(C(=O)N4CC(OCC(F)(F)F)C4)nc3)(C1)C2` [Compound 601, 2-(4-chloro-3-fluorophenoxy)-N-(3-{6-[3-(2,2,2-trifluoroethoxy)azetidine-1-carbonyl]pyridin-3-yl}bicyclo[1.1.1]pentan-1-yl)acetamide] the EC50 (Homo sapiens, HEK-293T, 7 h) was 10 to 50 nM.
Compound `O=C(NC12CC(c3nnc(OCCOC(F)(F)F)o3)(C1)C2)[C@H]1C[C@@H](O)c2cc(Cl)ccc2O1` [Compound 468, (2R,4R)-6-chloro-4-hydroxy-N-(3-{5-[2-(trifluoromethoxy)ethoxy]-1,3,4-oxadiazol-2-yl}bicyclo[1.1.1]pentan-1-yl)-3,4-dihydro-2H-1-benzopyran-2-carboxamide] has an EC50 (Homo sapiens, HEK-293T, 7 h) of less than 10 nM.
In the case of `O=C(NC12CC(n3cc(-c4ccc(C(F)(F)F)cn4)cn3)(C1)C2)[C@@H]1C[C@@H](O)c2cc(C(F)(F)F)ccc2O1` [Compound 548, (2S,4R)-4-hydroxy-6-(trifluoromethyl)-N-(3-{4-[5-(trifluoromethyl)pyridin-2-yl]-1H-pyrazol-1-yl}bicyclo[1.1.1]pentan-1-yl)-3,4-dihydro-2H-1-benzopyran-2-carboxamide], the EC50 (Homo sapiens, HEK-293T, 7 h) is reported as less than 10 nM.
In the case of `O=C(COc1ccc(Cl)c(F)c1)N[C@H]1C[C@H]2O[C@@H]1CC2c1nnc([C@H]2C[C@@H](OC(F)(F)F)C2)o1` (mixture of isomers) [Compound 168, 2-(4-chloro-3-fluorophenoxy)-N-[rac-(1R,2S,4R,5S)-5-{5-[cis-3-(trifluoromethoxy)cyclobutyl]-1,3,4-oxadiazol-2-yl}-7-oxabicyclo[2.2.1]heptan-2-yl]acetamide], the EC50 (Homo sapiens, HEK-293T, 7 h) is reported as 250 to 500 nM.
